Experimental data published in US9351955B2, “Compounds and pharmaceutical compositions thereof for the treatment of cystic fibrosis” (Galapagos NV, priority 2013, dated 2016).
Several values for one entry are separate records, joined by “and”; a condition that tells them apart may be missing. Equal values may be shown once. Read-outs that look alike come from different tables or passages of the source.

How the values were obtained:
Assay type in all cases: cell-based
CFTR ΔF508 mutant [1] = biological target: T1, CFTR ΔF508 mutant (Homo sapiens, UniProt P13569, DEL508-508); assay: YFP-halide influx assay for the CFTR-ΔF508 mutation (96 well, CFBE41o- cells); details: read-out: EC50 measured by YFP-halide influx assay for the CFTR-ΔF508
T1 construct: expressed in transfected cells; host or cells: CFBE41o- (adenoviral transduction)
T1 sequence (P13569 with tags, fused parts or gaps DEL508-508): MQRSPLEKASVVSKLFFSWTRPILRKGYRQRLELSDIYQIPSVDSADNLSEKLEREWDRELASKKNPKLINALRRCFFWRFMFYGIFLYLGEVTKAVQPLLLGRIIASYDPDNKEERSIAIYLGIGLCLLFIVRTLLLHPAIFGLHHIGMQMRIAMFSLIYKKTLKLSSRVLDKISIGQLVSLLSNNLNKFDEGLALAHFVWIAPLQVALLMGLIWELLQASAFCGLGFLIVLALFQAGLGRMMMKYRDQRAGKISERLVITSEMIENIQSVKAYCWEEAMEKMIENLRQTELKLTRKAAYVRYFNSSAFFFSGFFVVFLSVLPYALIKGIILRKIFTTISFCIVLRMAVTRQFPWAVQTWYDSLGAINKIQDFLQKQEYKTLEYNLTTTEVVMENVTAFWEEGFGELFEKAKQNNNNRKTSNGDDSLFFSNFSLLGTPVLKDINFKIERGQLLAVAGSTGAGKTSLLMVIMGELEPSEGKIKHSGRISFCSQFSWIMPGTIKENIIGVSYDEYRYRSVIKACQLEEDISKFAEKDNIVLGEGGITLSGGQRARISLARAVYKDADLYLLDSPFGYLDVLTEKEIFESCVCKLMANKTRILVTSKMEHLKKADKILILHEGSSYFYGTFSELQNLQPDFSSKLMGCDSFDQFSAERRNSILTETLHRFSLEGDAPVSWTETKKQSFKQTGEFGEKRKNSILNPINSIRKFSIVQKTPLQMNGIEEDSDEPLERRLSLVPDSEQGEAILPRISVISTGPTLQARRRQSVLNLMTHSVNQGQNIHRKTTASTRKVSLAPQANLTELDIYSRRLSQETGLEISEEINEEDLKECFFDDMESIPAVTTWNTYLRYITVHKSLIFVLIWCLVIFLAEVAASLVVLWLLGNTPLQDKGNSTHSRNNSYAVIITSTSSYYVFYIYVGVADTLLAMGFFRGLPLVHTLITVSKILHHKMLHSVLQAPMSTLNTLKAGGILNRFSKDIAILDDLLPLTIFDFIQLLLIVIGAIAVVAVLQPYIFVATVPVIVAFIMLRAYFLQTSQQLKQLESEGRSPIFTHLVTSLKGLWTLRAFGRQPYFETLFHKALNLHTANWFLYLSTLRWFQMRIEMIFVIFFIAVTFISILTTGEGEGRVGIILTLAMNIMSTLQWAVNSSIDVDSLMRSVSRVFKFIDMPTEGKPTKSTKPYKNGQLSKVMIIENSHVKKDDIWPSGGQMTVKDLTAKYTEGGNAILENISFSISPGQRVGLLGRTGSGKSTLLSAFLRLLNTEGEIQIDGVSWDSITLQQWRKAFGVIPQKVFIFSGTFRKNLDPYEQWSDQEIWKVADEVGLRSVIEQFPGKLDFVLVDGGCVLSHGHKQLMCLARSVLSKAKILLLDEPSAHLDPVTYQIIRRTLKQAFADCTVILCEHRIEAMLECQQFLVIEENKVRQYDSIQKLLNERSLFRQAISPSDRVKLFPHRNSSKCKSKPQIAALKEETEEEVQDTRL
Excerpt: 6.1. YFP-Halide Influx Assay for the CFTR-ΔF508 Mutation
The YFP halide influx assay measures the functionality of the cystic fibrosis Transmembrane Conductance regulator (CFTR) channels in the cystic fibrosis bronchial epithelium cell line CFBE41o-. The assay is used to evaluate the capacity of compounds to increase the open probability of existing CFTR channels in the membrane. It makes use of the observation that the yellow fluorescent protein (YFP) variant YFP H148Q, I152L has its fluorescence substantially quenched by halide ions like Cl^− and I^−. (Galietta et al., 2001; Nagai et al., 2002)
For this purpose, CFBE410-cells are seeded in 96 well plates (6000 CFBE cells/well). One day after seeding, the CFBE cells are transduced with adenoviral vectors that direct the expression of the CFTR ΔF508 mutant and of the YFP reporter. Cells are incubated at 27° C., 5% CO2 for 24 hours so as to allow for the proper folding and migration to the membrane of the CFTR channel or treated with a CFTR modulator during 24 h at 37° C.
The […] quenching of fluorescence is recorded immediately after injection of I^− for 7 seconds. The capacity of a compound to increase the channel opening is directly correlated with the decrease in fluorescence, and is expressed as (1-(fluorescence after 7 seconds (F)/fluorescence before injection (F0))) and an EC50 can be derived from a (1−F/F0) vs compound concentration plot.

CFTR G551D mutant = biological target: T2, CFTR G551D mutant (Homo sapiens, UniProt P13569, G551D); assay: YFP-halide influx assay for the CFTR-G551D mutation (HEK293 cells); details: read-out: EC50 measured by YFP-halide influx assay for the CFTR-G551D
T2 construct: expressed in transfected cells; host or cells: HEK293 (reverse transfection with plasmids)
T2 sequence (P13569 whole entry G551D): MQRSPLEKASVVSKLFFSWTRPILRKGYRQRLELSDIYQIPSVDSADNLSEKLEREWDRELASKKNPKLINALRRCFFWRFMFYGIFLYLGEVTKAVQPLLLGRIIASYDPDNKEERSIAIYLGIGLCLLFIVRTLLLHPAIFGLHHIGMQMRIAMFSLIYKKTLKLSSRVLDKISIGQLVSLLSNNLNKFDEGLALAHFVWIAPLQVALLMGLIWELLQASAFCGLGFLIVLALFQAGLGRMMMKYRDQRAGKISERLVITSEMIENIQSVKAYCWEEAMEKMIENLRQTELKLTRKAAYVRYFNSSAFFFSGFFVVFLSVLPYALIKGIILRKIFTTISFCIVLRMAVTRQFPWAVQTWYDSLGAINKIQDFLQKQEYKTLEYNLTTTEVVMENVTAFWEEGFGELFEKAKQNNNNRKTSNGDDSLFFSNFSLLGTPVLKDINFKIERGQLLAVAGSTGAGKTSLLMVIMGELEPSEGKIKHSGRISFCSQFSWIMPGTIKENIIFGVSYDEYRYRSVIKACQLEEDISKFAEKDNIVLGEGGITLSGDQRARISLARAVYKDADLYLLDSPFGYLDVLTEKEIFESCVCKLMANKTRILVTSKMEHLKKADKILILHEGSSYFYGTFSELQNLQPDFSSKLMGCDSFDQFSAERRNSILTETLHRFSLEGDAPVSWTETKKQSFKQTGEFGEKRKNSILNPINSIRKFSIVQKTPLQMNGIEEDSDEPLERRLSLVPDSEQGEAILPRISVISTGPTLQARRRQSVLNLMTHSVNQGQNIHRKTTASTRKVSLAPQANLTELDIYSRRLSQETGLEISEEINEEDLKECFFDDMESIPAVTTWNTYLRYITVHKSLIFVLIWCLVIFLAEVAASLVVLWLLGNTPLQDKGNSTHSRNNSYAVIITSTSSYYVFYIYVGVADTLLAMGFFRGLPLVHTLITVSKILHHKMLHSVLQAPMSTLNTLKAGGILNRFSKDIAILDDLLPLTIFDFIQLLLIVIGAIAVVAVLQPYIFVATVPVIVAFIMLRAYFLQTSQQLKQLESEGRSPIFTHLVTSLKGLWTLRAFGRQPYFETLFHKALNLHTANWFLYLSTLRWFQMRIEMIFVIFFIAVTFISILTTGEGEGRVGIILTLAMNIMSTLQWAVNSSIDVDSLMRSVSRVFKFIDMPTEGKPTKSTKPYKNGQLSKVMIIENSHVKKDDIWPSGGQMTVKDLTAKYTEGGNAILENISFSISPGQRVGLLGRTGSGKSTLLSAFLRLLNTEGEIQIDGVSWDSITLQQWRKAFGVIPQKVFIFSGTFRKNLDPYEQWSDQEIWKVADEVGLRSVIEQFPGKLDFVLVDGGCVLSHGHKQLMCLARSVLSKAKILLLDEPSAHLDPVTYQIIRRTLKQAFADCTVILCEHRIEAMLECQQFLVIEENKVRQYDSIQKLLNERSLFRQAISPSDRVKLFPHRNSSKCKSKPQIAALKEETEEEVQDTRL
Outline: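 HEK293 cells reverse-transfected with CFTR G551D and halide-sensitive YFP, expressed 24 h at 37 °C. Iodide-induced fluorescence quench recorded for 7 s after I^− injection; response as 1−F/F0, EC50 from concentration plot.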

CFTR ΔF508 = biological target: T3, CFTR ΔF508 (Homo sapiens, UniProt P13569, DEL508-508); assay: TECC assay, primary bronchial epithelial cells from CF patients homozygous for CFTR ΔF508; details: for ΔIsc / Current increase: TECC assay; for Current increase: compound at 50 nM, difference between ΔIsc with compound and ΔIsc DMSO (baseline); for activity on the CFTR protein in TECC assay (ΔISC vs DMSO baseline): at 3 μM, or 50 nM, or 50/100/200 nM; for EC50: primary bronchial epithelial cells, CFTR ΔF508, several values in a cell = repeat determinations
T3 construct: host or cells: primary bronchial epithelial cells from CF patients homozygous for ΔF508, pre-treated with VX809
T3 sequence (P13569 with tags, fused parts or gaps DEL508-508): as the sequence (P13569 with tags, fused parts or gaps DEL508-508) above
Description: 7.2.1. Primary Bronchial Epithelial Cells Protocol
The TECC (Tranepithelial Clamp Circuit, EP-design) assay measures the functionality of the cystic fibrosis Transmembrane Conductance regulator (CFTR) by measuring the short circuit current (ISC) generated over the basolateral and apical membrane of lung epithelial cells. In TECC the transepithelial potential PD and transepithelial resistance (Rt) are measured in an open circuit and transformed to ISC using Ohm's law. 24 wells can be measured simultaneously allowing a higher throughput compared to Ussing chambers.
For this purpose, bronchial epithelial cells isolated from CF patients homozygous for the CFTR ΔF508 mutation (hAEC-CF, Epithelix) are plated on type IV collagen-coated Transwell supports (Costar). Human airway epithelia are generated by provision of an air-liquid interface for 21 days to form well-differentiated polarized cultures that resemble in vivo pseudo-stratified ciliated epithelium (Fulcher et al., 2005). In the case of the homozygous ΔF508 CFTR samples, the differentiated cells are treated with 3 μM VX809 (2626 South Loop West, Suite 225, Houston, Tex. 77054 USA, Cat n#51565) to allow sufficient expression of properly folded CFTR protein on the membrane (48 hours basolateral treatment and 24 hours apical treatment), prior to electrophysiological recordings. […] G551D/ΔF508, differentiated cells are used as such for the recordings.
Information on the compounds can be retrieved on the homozygous ΔF508 CFTR samples looking at increased CFTR activity when compounds are added in an acute mode or in a chronic mode. On G551D/ΔF508 CFTR heterozygous samples compounds are added in an acute mode to the differentiated cells.
For the acute mode, for electrophysiological recording, the human airway epithelia are mounted in the TECC heating plate for electrophysiological measurement and kept at 37° C. The epithelia are bathed in a NaCl-Ringer solution (120 mM NaCl, 25 mM NaHCO3, 1.2 mM CaCl2, 1.2 mM MgCl2, 0.8 mM KH2PO4, 0.8 mM K2HPO4, pH 7.4, 5 mM glucose) on both the basolateral and apical sides. Apical amiloride is used to inhibit the endogenous ENaC currents while forkolin is applied on both apical and basolateral side to stimulate CFTR. After forskolin triggering, compounds are added on both sides to test their potential for increasing CFTR gating. Measurements are done during a 20 minute timeframe with recordings every 2 minutes. The increase in ISC is used as a measure for the increased CFTR activity, EC50 values can be generated by measuring impact of different concentrations of compound on ISC on primary cells, for this purpose each transwell is treated with a different compound concentration. Inh-172, an inhibitor specific for CFTR, is used to test the specificity of the tested compounds.
For the chronic mode, the differentiated cells are treated with 3 μM VX809 (2626 South Loop West, Suite 225, Houston, Tex. 77054 USA, Cat n#51565) and potentiator compounds at different concentrations (48 hours basolateral treatment and 24 hours apical treatment), prior to electrophysiological recordings. For electrophysiological recording, the human airway epithelia are mounted in the TECC heating plate for electrophysiological measurement and kept at 37° C. […]

CFTR ΔF508 mutant [2] = biological target: T1, CFTR ΔF508 mutant; assay: YFP-halide influx assay for the CFTR-ΔF508 mutation (384 well, CFBE41o- cells, FDSS/μCell); details: forskolin 10.67 μM, fluorescence after 36 seconds, read-out: EC50 measured by YFP-halide influx assay for the CFTR-ΔF508
Outline: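 CFBE41o- cells were adenovirally transduced with ΔF508 CFTR and the YFP H148Q/I152L reporter. Cells were then held 24 h at 27 °C or treated 24 h at 37 °C with a CFTR modulator. Iodide-induced quench was recorded for 2 min, and EC50 was derived from 1−F/F0 at 36 s against compound concentration.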

CFTR-G1349D = biological target: T4, CFTR-G1349D (Homo sapiens, UniProt P13569, G1349D); assay: YFP-halide influx assay for the CFTR-G1349D; details: CFTR-G1349D mutant; read-out: EC50 measured by YFP-halide influx assay for the CFTR-G1349D
T4 construct: expressed in transfected cells
T4 sequence (P13569 whole entry G1349D): as the sequence (P13569 whole entry G551D) above, with D551G, G1349D counted along it
Excerpt: (§1) The YFP halide influx assay measures the functionality of the cystic fibrosis Transmembrane Conductance regulator (CFTR) channels. The assay is used to evaluate the capacity of compounds to increase the channel opening of existing mutant CFTR channels in the membrane. It makes use of the observation that the yellow fluorescent protein (YFP) variant YFP H148Q, I152L, F47L has its fluorescence substantially quenched by halide ions like Cl^− and I^−. (Galietta et al., 2001)
(§2) For this purpose, HEK293-cells are seeded in 96 well plates. During seeding, the cells are reverse-transfected with plasmid vectors that direct the expression of the CFTR G551D mutant and of the YFP reporter. Cells are incubated at 37° C., 5% CO2 for 24 hours so as to allow for sufficient expression of the CFTR protein.
(§3) The I^−-induced quenching of fluorescence is recorded immediately after injection of I^− for 7 seconds. The capacity of a compound to increase the channel opening is directly correlated with the decrease in fluorescence, and is expressed as (1−(fluorescence after 7 seconds (F)/fluorescence before injection (F0))) and an EC50 can be derived from a (1−F/F0) vs compound concentration plot.
(§4) Similar YHA assays were developed for other channel gating defective or channel conductance defective CFTR mutants to determine effect of compound on channel activity. Examples of mutants are G178R, G1349D, S549N, R117H, R334W. This assay is also used for additional class I CFTR mutants, including G542X, W1282X; class II mutants including N1303K, and for class III mutants including S1251N; or wild-type CFTR.

CFTR-S549N = biological target: T5, CFTR-S549N (Homo sapiens, UniProt P13569, S549N); assay: YFP-halide influx assay for the CFTR-S549N; details: CFTR-S549N mutant; read-out: EC50 measured by YFP-halide influx assay for the CFTR-S549N
T5 construct: expressed in transfected cells
T5 sequence (P13569 whole entry S549N): as the sequence (P13569 whole entry G551D) above, with S549N, D551G counted along it
Excerpt: as §1, §2, §3, §4

CFTR-R117H = biological target: T6, CFTR-R117H (Homo sapiens, UniProt P13569, R117H); assay: YFP-halide influx assay for the CFTR-R117H; details: CFTR-R117H mutant; read-out: EC50 measured by YFP-halide influx assay for the CFTR-R117H
T6 construct: expressed in transfected cells
T6 sequence (P13569 whole entry R117H): as the sequence (P13569 whole entry G551D) above, with R117H, D551G counted along it
Excerpt: as §1, §2, §3, §4

CFTR-G178R = biological target: T7, CFTR-G178R (Homo sapiens, UniProt P13569, G178R); assay: YFP-halide influx assay for the CFTR-G178R; details: read-out: EC50 measured by YFP-halide influx assay for the CFTR-G178R
T7 construct: expressed in transfected cells
T7 sequence (P13569 whole entry G178R): as the sequence (P13569 whole entry G551D) above, with G178R, D551G counted along it
Excerpt: as §1, §2, §3, §4

[3] = comparative compounds, HEK293 cells
[4] = HEK293 cells expressing CFTR G551D and YFP reporter, forskolin 10.67 μM
[5] = compounds of the invention, 96 well, forskolin 10.67 μM

Compound | EC50 (CFTR ΔF508 mutant [1]; comparative compounds) [nM] | ΔIsc (CFTR ΔF508; compound at 50 nM (Table XV)) [μA/cm^2] | ΔIsc (CFTR ΔF508; compound at 50 nM (Table XVI)) [μA/cm^2] | Current increase (CFTR ΔF508) [μA/cm^2] | ΔIsc (CFTR ΔF508; compound at 100 nM (Table XVI)) [μA/cm^2] | ΔIsc (CFTR ΔF508; compound at 200 nM (Table XVI)) [μA/cm^2] | activity on the CFTR protein in TECC assay (ΔISC vs DMSO baseline) (CFTR ΔF508) | EC50 (CFTR ΔF508 mutant [2]) [nM] | further results
CN1CCc2c(sc(NC(=O)c3ccccc3O)c2C(N)=O)C1 [A, 2-(2-hydroxybenzamido)-6-methyl-4,5,6,7-tetrahydrothieno[2,3-c]pyridine-3-carboxamide, reference compound] | > 10000 | −0.3248 | −0.3807 | −0.0559 | −0.5401 | −0.6598 | no such activity | – | EC50 (CFTR G551D mutant; [3]): > 10000 nM
NC(=O)c1c(NC(=O)c2cc[nH]n2)sc2c1CCOC2 [E, N-(3-carbamoyl-5,7-dihydro-4H-thieno[2,3-c]pyran-2-yl)-1H-pyrazole-3-carboxamide, reference compound] | 479 | 0.1663 | 0.1663 | 0.4911 | −0.0318 | 0.5241 | no such activity | – | EC50 (CFTR G551D mutant; [3]): 2900 nM
NC(=O)c1c(NC(=O)c2ccccc2Cl)sc2c1CCCC2 [B, 2-(2-chlorobenzamido)-4,5,6,7-tetrahydrobenzo[b]thiophene-3-carboxamide, reference compound] | < 370 | 0.1807 | 0.1807 | 0.5055 | 0.4762 | 0.8022 | no such activity | – | –
CC1(C)Cc2c(sc(NC(=O)c3n[nH]cc3C3COCCO3)c2C(N)=O)C(C)(C)O1 (stereo not drawn) [Compound 95, N-(3-carbamoyl-5,5,7,7-tetramethyl-4H-thieno[2,3-c]pyran-2-yl)-4-(1,4-dioxan-2-yl)-1H-pyrazole-3-carboxamide] | – | – | – | – | – | – | – | 24.5 | EC50 (CFTR G551D mutant; [4]): 1060 nM; EC50 (CFTR-G1349D): 81.4 nM; EC50 (CFTR-S549N): 291 nM; EC50 (CFTR-R117H): 106 nM
CC1(C)Cc2c(sc(NC(=O)c3ccnn3COP(=O)(O)O)c2C(N)=O)C(C)(C)O1 [Compound 92, [5-[(3-carbamoyl-5,5,7,7-tetramethyl-4H-thieno[2,3-c]pyran-2-yl)carbamoyl]pyrazol-1-yl]methyl dihydrogen phosphate] | – | – | – | – | – | – | – | – | EC50 (CFTR-G178R): 82.2 nM
CC1(C)Cc2c(sc(NC(=O)C(C)(C)O)c2C(N)=O)C(C)(C)O1 [Compound 6, 2-(2-hydroxy-2-methylpropanamido)-5,5,7,7-tetramethyl-5,7-dihydro-4H-thieno[2,3-c]pyran-3-carboxamide] | – | – | – | – | – | – | – | 16.2 | EC50 (CFTR ΔF508 mutant [1]; [5]): 75.8 nM; EC50 (CFTR ΔF508): 165 nM and 60.9 nM
CC1(C)Cc2c(sc(NC(=O)c3ccc(F)cc3O)c2C(N)=O)C(C)(C)O1 [Compound 21, 2-(4-fluoro-2-hydroxybenzamido)-5,5,7,7-tetramethyl-5,7-dihydro-4H-thieno[2,3-c]pyran-3-carboxamide] | – | – | – | – | – | – | – | 0.71 | EC50 (CFTR ΔF508 mutant [1]; [5]): 6.46 nM; EC50 (CFTR G551D mutant; [4]): 57.5 nM; EC50 (CFTR ΔF508): 16.3 nM
